From patent US20240197738A1, “COMPOUND 7AI IN TREATING EWING SARCOMA BY INHIBITING OTUD7A” (The University of North Carolina at Chapel Hill, priority 2021, published 2024) come the findings set out here.

Data set [1] addresses T1, His-tagged OTUD7A OTU domain (aa183-449) (Homo sapiens, UniProt Q8TE49).
T1 construct: the bacterially produced His-tagged OTUD7A OTU domain (aa183-449) was purified; made in house; host or cells: E. coli BL21 (pET28a vector)
Put plainly: Isothermal titration calorimetry (ITC) of 7Ai with OTUD7A OTU domain. As to conditions: bacterially produced His-tagged OTUD7A OTU domain (aa183-449), read-out: binding affinity of 7Ai in vitro (ITC). Here is the method:
ITC measurements were performed using a MicroCal auto-iTC200 calorimeter (MicroCal, LLC) as described previously. Briefly, His-tagged OTU domain of OTUD7A proteins were purified using BL21 strain upon induced by 0.3 mM IPTG when OD600 around 0.6 overnight at 16° C. Then purified human His-tagged OTU domain of OTUD7A was dialyzed against 50 mM HEPES buffer (pH 7.2) with 100 mM NaCl for overnight at 4° C. The concentration of the protein was determined by band intensity in a gel-cod staining SDS-PAGE gel. The ITC assay was carried out at 37 °C. The dialyzed His-OTUD7A-OTU proteins were diluted to 40 μM in the dialysis buffer containing 4% DMSO. Then, 400 μM 7Ai, dissolved in the same dialysis buffer with 4% DMSO (50 mM HEPES buffer (pH 7.2) with 100 mM NaCl) was injected into 0.4 mL of His-OTUD7A-OTU protein in the chamber for every 180 s. The dissociation constants and thermodynamic parameters were determined by using the embedded software package Origin7 (Microcal).
A general note: Isothermal titration calorimetry measures the heat released or taken up as one component is titrated into another.

The next data set relates to A673 cells. Put plainly: Cell viability (MTT) assay, A673. As to conditions: A673, 3-day treatment. In kind it is cell-based, human. As to the method:
(§1) 2,000 indicated cells were seeded in each well of 96-well plates for MTT assays to monitor cell viability at indicated time periods using a method adapted from https://www.thermofisher.com/us/en/home/references/protocols/cell-culture/mtt-assay-protocol/vybrant-mtt-cell-proliferation-assay-kit.html. Briefly, at indicated time points post-cell seeding, 10 μL MTT solution was added into each well and incubated in the culture incubator (37° C. with 5% CO2) for 4 hrs. Then medium was removed and 100 μL DMSO was added into each well to dissolve the formazan crystal and incubated for 10 min at 37° C. After thorough mixing, absorbance at 540 nm was measured using the BioTek Cytation 5 Cell Imaging reader.

In data set [2] the test system is A673 cells expressing EWS-FLI1-3A. The data set is described as follows: Growth of A673 cells expressing EWS-FLI1-3A. The data set is classed as cell-based, human. As to the method: as §1
For the next data set, the system named is HUVEC cells. Put plainly: Cell viability (MTT) assay, HUVEC. In kind it is cell-based, human. As to conditions: 72 hrs (FIG. 5S). As to the method:
as §1

For another data set, the system named is MHH-ES-1 cells. Put plainly: 2D colony formation assay, MHH-ES-1. The data set is classed as cell-based, human. As to conditions: MHH-ES-1, 2-week treatment (FIG. 5J). Here is the method: Indicated cells were seeded into 6-well plates (300 or 600 cells/well) or 6 cm dishes (500 or 1,000 cells/dish) and cultured in 37° C. incubator with 5% C02 for ˜14 days (as indicated in figure legends) until formation of visible colonies. Colonies were washed with 1×PBS and fixed with 10% acetic acid/10% methanol for 30 min, stained with 20% acidic acid/10% Methanol with 0.1% crystal violet until colonies were visibly stained. Colonies were then washed by tap water and air-dried. Colony numbers were manually counted. At least two independent experiments were performed to generate the error bars.

The test system of data set [3] is A673 cells xenografted tumor. Put plainly: Mouse xenograft assay with A673 cells. The data set is classed as in vivo, nude mice. As to the method: All mouse work has been reviewed and approved by UNC Institutional Animal Care and Use Committee under IACUC #19-031. Mouse xenograft assays were performed as described previously. Briefly, for mouse xenograft experiments, 2.5×10^6 parental or EWS-FLI1-3A knockin A673 cells were mixed 1:1 with matrigel (Corning 354230) and injected into the flank of indicated female nude mice (NCRNU-M-M from UNC Animal Facility, 4 weeks old). Six days post-injection, when the tumors were established, 2% sucrose with or without 1 μg/mL tetracycline was supplied in water for mice and refreshed every 5 days. Tumor size was measured every two days with a digital caliper, and the tumor volume was determined with the formula: L×W^2×0.52, where L is the longest diameter and W is the shortest diameter. After 22 days, mice were sacrificed, and tumors were dissected and weighed.
For 7Ai treatment in nude mice, 2.5×10^6 A673 cells were mixed 1:1 with matrigel (Corning 354230) and injected into the flank of indicated female nude mice (NCRNU-M-M from UNC Animal Facility, 4 weeks old). Seven days post-injection, when the tumors were established, 100 μL 7Ai (25 mg/kg, dissolved in ethanol followed by the addition of sunflower oil and then sonicated at 4° C. in a water bath sonicator until 7Ai was completely dissolved) was given to mice through IP injections and this treatment was repeated every 3 days.
Freshly dissected xenografted tumors are immediately fixed in 10% formalin for 2 days before transferring to 80% ethanol for one day to prepare tumor blocks. 4-μm sections were cut from each of the tumor blocks by UNC TPL facility and used for IHC study. IHC was performed as described previously. Normal human tissue TMA was purchased from UNC TPL facility. Human Ewing sarcoma tissues were obtained post-mortem and fixed in 10% formalin and embedded in paraffin.

T1 sequence (Q8TE49 183-449): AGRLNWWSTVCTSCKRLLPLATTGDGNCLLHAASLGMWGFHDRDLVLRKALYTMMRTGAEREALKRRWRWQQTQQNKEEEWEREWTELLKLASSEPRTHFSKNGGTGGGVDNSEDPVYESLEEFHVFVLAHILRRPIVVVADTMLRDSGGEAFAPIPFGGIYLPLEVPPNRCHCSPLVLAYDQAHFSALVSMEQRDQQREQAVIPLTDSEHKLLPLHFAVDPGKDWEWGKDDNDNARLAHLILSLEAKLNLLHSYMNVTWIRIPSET

Take `Cn1nccc1-c1cc(-c2ccnn2C)n2nc(C(=O)Nc3cnn(Cc4c(Cl)cccc4Cl)c3)cc2n1` [7Ai]: the Kd in data set [1] was roughly 1100 nM. In the data set on A673 cells, the “proliferation (cell viability)” value is on record as “reduced proliferation”. The cell growth result in data set [2] is “failed to significantly suppress growth”. In addition, in the data set with HUVEC cells, the “proliferation (cell viability)” value is “neglectable effects”. The colony formation ability entry in the data set with MHH-ES-1 cells is “reduced colony formation ability”. Moreover, the tumor volume entry in data set [3] (A673 xenograft in nude mice, 25 mg/kg IP, vs vehicle (FIG. 5P)) is reported as “significantly reduced tumor volume”. The “tumor growth (dissected tumors, weight)” value in data set [3] (A673 xenograft in nude mice, 25 mg/kg IP, vs vehicle (FIGS. 5Q-5R)) was “significantly reduced”. Also, in data set [3] (A673 xenograft tumors, IHC), the “EWS-FLI1 protein in treated tumors” value was “reduced EWS-FLI1 protein”, the “apoptosis in treated tumors (cleaved-caspase3 staining)” value is listed as “increased apoptosis” and the “cell proliferation in treated tumors (Ki67 staining)” value is “reduced”. In addition, the body weight entry in data set [3] (nude mice, 25 mg/kg IP, 3-week treatment period) is “did not significantly affect body weight”.
